Results: patent publication US12295937B2, “Psychoactive medicines and their use for treating psychiatric and neurological conditions and disorders” (Transcend Therapeutics, Inc., priority 2021, dated 2025)

Test: IMPACT-1 Part A open-label study in PTSD
Type: in vivo, human
Parameters: Anxiety Sub-Scale of MADRS, score reduction / Participants with absence of Reduced Sleep (MADRS): concentration or dose not given beside the values
Method: For each participant in Parts A and B, the study consists of: • Screening Period (Day −28 to Day −4): Informed consent, eligibility assessment, and enrolment of eligible participants. • Baseline/Preparatory Session (Day −3 to Day −1): Baseline assessments, confirmation of eligibility, and a preparatory psychoeducation session leading to enrolment confirmation. • Treatment Period (Day 1 to Day 24): Four weekly dose sessions, with associated remote sessions. The dose sessions last at least 8 hours, or until all effects (physical and psychological) have resolved (whichever is longer). Each dose session is followed by a safety phone call 1 day after dosing and efficacy assessments 2 days after dosing. Each dosing period is video recorded for quality and training purposes. The videos may be reviewed to ensure the Mentor is adhering to the Mentor training. • Follow-Up Period (Day 29 to Day 64): Follow-Up visits for safety and efficacy occur at 1, 2, 3 and 6 weeks post-final study drug administration. In addition, there are Mentor-Led Reflection Sessions 1, 2 and 3 weeks post-final study drug administration. Participants are contacted via telephone on Day 57 (±2 days) for Follow-Up. • Discontinuations: Participants who discontinue prematurely are asked to return for an extra visit to duplicate the 6-week end-of-study (EOS) visit.
Each dose was given as an initial dose, followed by a second dose 90 minutes later. During the dosing session, participants were accompanied by a trained Mentor who provided non-directive support. After the 4-week treatment period, participants attended follow-up visits at 1, 2, 3, and 6 weeks following the last dose. Safety was assessed via standard measures including adverse events. PTSD symptoms were assessed via Clinician-Administered PTSD Scale for DSM-5 (CAPS-5), depressive symptoms were assessed via Montgomery-Åsberg Depression Rating Scale (MADRS). Anti-anxiety efficacy was evaluated using the Anxiety Sub-Scale of MADRS, namely, questions (Items 3, 4, 5, 6) that address four anxiety items (inner tension, reduced sleep, reduced appetite, concentration difficulties) Changes from baseline were analyzed using a paired t-test p-values.
Methods: The IMPACT-1 study is a multi-center, two-part clinical trial. Part A has completed and was an open-label evaluation involving 14 participants with PTSD. Eligible participants are adults with severe PTSD (CAPS-5≥35) who had failed at least 1 prior treatment (pharmacotherapy and/or psychotherapy) for PTSD. […] Throughout each dosing session, participants were provided non-directive psychological support by a trained mental health practitioner. Following the 4-week treatment period, participants were followed for an additional 6 weeks to evaluate the durability of the therapeutic effect. PTSD symptom improvement was evaluated on the CAPS-5. Functioning was assessed via the 3 domains (school/work, family life, social life) of the Sheehan Disability Scale (SDS). Global improvement was measured by the CGI-I. Safety was assessed by monitoring adverse events, vital signs, and C-SSRS.
Following the 4-week treatment period, participants were followed for an additional 6 weeks to evaluate the durability of the therapeutic effect. Sleep-related improvements were evaluated on the CAPS-5 (including distressing dreams [item B2; scores range 0 to 4] and sleep disturbances [item E6; scores range 0 to 4]), the Pittsburgh Sleep Quality Index (PSQI; total scores range 0 to 21) and subscales, and the reduced sleep item of the Montgomery-Åsberg Depression Rating Scale (MADRS; scores range 0 to 6).

CNC(C)C(=O)c1ccc2c(c1)OCO2 (centres unmarked) [Methylone, 3,4-methylenedioxy-N-methylcathinone]
CAPS-5 score decrease (6 weeks after the last dose): 36.2 points | MADRS score decrease (6 weeks after the last dose): 21.4 points | Anxiety Sub-Scale of MADRS, score reduction (Day 3): 20% | CAPS-5 score decrease (Day 3): 8.4 points | MADRS score decrease (Day 3): 8.2 points | Anxiety Sub-Scale of MADRS, score reduction (Day 10): 43% | CAPS-5 score decrease (Day 10): 23.3 points | MADRS score decrease (Day 10): 16.2 points | Participants achieving remission (CAPS-5) (Day 10): ~40% | Participants much or very much improved (CGI-I) (Day 10, two days after the 2nd dose): ~70% | Anxiety Sub-Scale of MADRS, score reduction (Day 17): 50% | Anxiety Sub-Scale of MADRS, score reduction (Day 24): 57% | Anxiety Sub-Scale of MADRS, score reduction (Day 29): 56% | Anxiety Sub-Scale of MADRS, score reduction (Day 36): 66% | Anxiety Sub-Scale of MADRS, score reduction (Day 43): 64% | Anxiety Sub-Scale of MADRS, score reduction (Day 64): 66% | SDS score, Family Life (Day 64): 3.1 (3.45) | SDS score, Mean Overall (Day 64): 3.1 (3.12) | SDS score, Social Life (Day 64): 3.2 (3.39) | SDS score, Work/School (Day 64): 3.3 (3.78) | TEAE: Bruxism (N = 14): 14.3% | TEAE: Decreased appetite (N = 14): 28.6% | TEAE: Dizziness (N = 14): 14.3% | TEAE: Fatigue (N = 14): 21.4% | TEAE: Headache (N = 14): 42.9% | TEAE: Hyperhidrosis (N = 14): 14.3% | TEAE: Influenza-like illness (N = 14): 14.3% | TEAE: Insomnia (N = 14): 14.3% | TEAE: Nasopharyngitis (N = 14): 14.3% | TEAE: Non-cardiac chest pain (N = 14): 21.4% | Drug-related serious adverse events (Part A): No drug-related SAEs occurred | TEAE: Any AE (Safety Population N = 14): 78.6% | CAPS-5 mean change from baseline (after the first dose): −8.4 points | SDS mean change from baseline (after the first dose): −1.53 | Participants with absence of Distressing Dreams (after treatment): 77% | Participants with absence of Reduced Sleep (MADRS) (after treatment): 62% | Participants with absence of Sleep Disturbances (after treatment): 62% | CAPS-5 Distressing Dreams (item B2) mean score (after treatment, baseline 2.2): 0.38 | CAPS-5 Sleep Disturbances (item E6) mean score (after treatment, baseline 3.3): 0.92 | MADRS Reduced Sleep mean score (after treatment, baseline 4.3): 1.08 | PSQI total mean score (end of study): 9.4 | Participants having mild or no impairment (SDS) (end of study): > 50% | PSQI total score improvement (end of study (6 weeks after the last dose), baseline 13.5): −4.0 points | CAPS-5 mean change from baseline (end of study visit (6 weeks after the last dose)): −36.2 points | Change in number of days lost (end of the 4-week treatment period, baseline 2.6): -2.0 days | Change in number of days underproductive (end of the 4-week treatment period, baseline 4.7): -3.3 days | Participants achieving remission (CAPS-5) (end of the study): 61.5% | Participants much or very much improved (CGI-I) (end of the study): all participants | Patient-reported chronic pain after methylone (one subject, knees, before 7-8 and 8-9 out of 10): 2-3 out of 10 | SDS mean change from baseline (through the 6-week follow-up period): −4.26
